Key:
Format in all cases: functional
Design in all cases: scale not given: the % may be the effect or the level left
[1] = tested on: Oryctolagus cuniculus; test: Hypoglycemic activity in fasting rabbit assessed as reduction of plasma glucose at 10 mg/kg, po
[2] = tested on: Oryctolagus cuniculus; test: Hypoglycemic activity in glucose-fed rabbit assessed as reduction of plasma glucose at 10 mg/kg, po after 0.5 hr
[3] = tested on: Oryctolagus cuniculus; test: Hypoglycemic activity in glucose-fed rabbit assessed as reduction of plasma glucose at 10 mg/kg, po after 1 hr
[4] = tested on: Oryctolagus cuniculus; test: Hypoglycemic activity in glucose-fed rabbit assessed as reduction of plasma glucose at 10 mg/kg, po after 1.5 hrs
[5] = tested on: Oryctolagus cuniculus; test: Hypoglycemic activity in glucose-fed rabbit assessed as reduction of plasma glucose at 10 mg/kg, po after 2 hrs
[6] = tested on: Oryctolagus cuniculus; test: Hypoglycemic activity in glucose-fed rabbit assessed as reduction of plasma glucose at 10 mg/kg, po after 2.5 hrs
[7] = tested on: Oryctolagus cuniculus; test: Hypoglycemic activity in rabbit assessed as reduction of plasma glucose at 10 mg/kg, po after 2 hrs
[8] = tested on: Oryctolagus cuniculus; test: Hypoglycemic activity in fasting rabbit assessed as reduction of plasma glucose at 50 mg/kg, po
[9] = tested on: Oryctolagus cuniculus; test: Hypoglycemic activity in glucose-fed rabbit assessed as reduction of plasma glucose at 50 mg/kg, po after 0.5 hr
[10] = tested on: Oryctolagus cuniculus; test: Hypoglycemic activity in glucose-fed rabbit assessed as reduction of plasma glucose at 50 mg/kg, po after 1 hr
[11] = tested on: Oryctolagus cuniculus; test: Hypoglycemic activity in glucose-fed rabbit assessed as reduction of plasma glucose at 50 mg/kg, po after 1.5 hrs
[12] = tested on: Oryctolagus cuniculus; test: Hypoglycemic activity in glucose-fed rabbit assessed as reduction of plasma glucose at 50 mg/kg, po after 2 hrs
[13] = tested on: Oryctolagus cuniculus; test: Hypoglycemic activity in glucose-fed rabbit assessed as reduction of plasma glucose at 50 mg/kg, po after 2.5 hrs
[14] = tested on: Oryctolagus cuniculus; test: Hypoglycemic activity in rabbit assessed as reduction of plasma glucose at 50 mg/kg, po after 2 hrs

SMILES | Activity [1] [mg%] | Activity [2] [mg%] | Activity [3] [mg%] | Activity [4] [mg%] | Activity [5] [mg%] | Activity [6] [mg%] | Activity [7] [%] | Activity [8] [mg%] | Activity [9] [mg%] | Activity [10] [mg%] | Activity [11] [mg%] | Activity [12] [mg%] | Activity [13] [mg%] | Activity [14] [%]
c1ccc(Nc2ccccc2)cc1 [DIPHENYLAMINE] | 102.2 | 140.2 | 154.6 | 80.2 | 71.8 | 77.2 | 61.4 |  |  |  |  |  |  | 
CCCCNC(=O)NS(=O)(=O)c1ccc(C)cc1 [TOLBUTAMIDE] |  |  |  |  |  |  |  | 104.2 | 129 | 154.3 | 125.2 | 104 | 95.1 | 44.1

From ChEMBL document CHEMBL1151626, “Diphenylamine, an antihyperglycemic agent from onion and tea” (1984)
